Results published in patent US20250195502A1, “APPLICATION OF TETRACYCLIC COMPOUND IN TREATMENT OF TUMORS” (SHANGHAI SHIJIANG BIOTECHNOLOGY CO., LTD, priority 2022, published 2025).
Where two headings read alike, the source gives them in different places.

What was measured:
Type in all cases: cell-based
[1] = tested on: SW48 (human colon adenocarcinoma cell); assay: Cell viability assay (Promega CellTiter-Glo), inhibitory effect on SW48; settings: 72 h, 3 days of culture
Protocol: (§1) The inhibitory effect of the compounds prepared in the Examples of the present invention on various tumor cell lines was detected using cell viability assay reagent.
(§2) Cell viability was detected using the Promega CellTiter-Glo kit, cell viability was determined by directly measuring intracellular ATP content. In the experiment, the ICso value of the compounds prepared in the Examples of the present invention on various tumor cell lines was detected.
(§3) Each tumor cell was cultured in relevant medium. After cell passage, the gradient diluted compounds prepared in the Examples of the present invention was added. After 3 days of culture, the relevant IC50 (50% inhibiting concentration) was measured. The name, source and culture conditions of each tumor cell line were as follows:
Cell line SW48 (ATCC, No. CCL-231) was cultured in 10% fetal bovine serum-containing Leibovitz's L-15 medium (+P/S).

[2] = tested on: 786-O (clear cell renal cell adenocarcinoma cell); assay: Cell viability assay (Promega CellTiter-Glo), inhibitory effect on 786-O; settings: Homo sapiens, 786-0, 72 h, 3 days of culture
Protocol: as §1, §2, §3
Cell line 786-0 (ATCC, No. CRL-1932) was cultured in 10% fetal bovine serum-containing RPMI1640 medium (+P/S).

[3] = tested on: Kelly (brain neuroblastoma cell); assay: Cell viability assay (Promega CellTiter-Glo), inhibitory effect on Kelly; settings: Homo sapiens, 72 h, 3 days of culture, read-out: inhibitory effect on brain cell line Kelly (IC50)
Protocol: (§4) The inhibitory effect of the compounds prepared in the Examples of the present invention on various brain tumor cell lines was detected using cell viability assay reagent.
(§5) Cell viability was detected using the Promega CellTiter-Glo kit, cell viability was determined by directly measuring intracellular ATP content. In the experiment, the IC50 value of the compounds prepared in the Examples of the present invention on various brain tumor cell lines was detected.
as §3
Cell line Kelly (ECACC, No. 92110411) was cultured in 10% fetal bovine serum and 2 mM glutamine-containing RPMI1640 medium.

[4] = tested on: GB-1 (human brain glioblastoma cell); assay: Cell viability assay (Promega CellTiter-Glo), inhibitory effect on GB-1; settings: 72 h, 3 days of culture
Protocol: as §1, §2, §3
Cell line GB-1 (JCRB, No. IFO50489) was cultured in 10% fetal bovine serum-containing DMEM medium (+P/S).
as §4, §5

[5] = tested on: Con-NCI-H82 cell (NCI-H82 transfected with empty virus vector); assay: Cell viability assay (Promega CellTiter-Glo), inhibitory effect on Con-NCI-H82 cell; settings: Homo sapiens; NCI-H82 transfected with empty virus vector (control); CellTiter-Glo; read-out: inhibitory effect on Con-NCI-H82 (IC50)
Protocol: (§6) The role of expression level of NNMT gene and DNMT1 in the sensitivity of NCI-H82 cell to the compounds prepared in the Examples of the present invention was determined
(§7) The expression of NNMT protein in NCI-H82 cell was overexpressed by inserting the NNMT gene into NCI-H82 cell using a viral vector, and the NNMT protein-overexpressing NCI-H82 cell (ov-NNMT NCI-H82 cell) was obtained. The expression of DNMT1 in NCI-H82 cell was knocked down transfecting (the by shRNA nucleotide sequence of shRNA was […] TTTTTG (SEQ ID No: 2)) using a viral vector, and the NCI-H82 cell with low expression of DNMT1 protein (sh-DNMT1 NCI-H82 cell) was obtained. The control NCI-H82 cell (Con-NCI-H82 cell) was obtained by transfecting NCI-H82 cell with empty virus vector without carrying NNMT gene and shRNA. The expressing content of NNMT protein and DNMT1 protein in the Con-NCI-H82 cell, the expressing content of NNMT protein in the ov-NNMT NCI-H82 cell, and the expressing content of DNMT1 protein in the sh-DNMT1 NCI-H82 cell were detected using Western Blot assay (as shown in FIG. 15 and FIG. 16), it could be seen from FIG. 15 and FIG. 16 that the NNMT protein was overexpressed in the ov-NNMT NCI-H82 cell and the expression of DNMT1 protein was knocked down (i.e, low expression) in the sh-DNMT1 NCI-H82 cell compared with the expression level of NNMT protein and DNMT protein in the Con-NCI-H82 cell.

[6] = tested on: CFPAC-1 (human pancreatic cancer cell); assay: Cell viability assay (Promega CellTiter-Glo), inhibitory effect on CFPAC-1; settings: 72 h, 3 days of culture
Protocol: as §1, §2, §3
Cell line CFPAC-1 (ATCC, No. CRL-1918) was cultured in 10% fetal bovine serum-containing IMDM medium (+P/S).

[7] = tested on: D341 Med (cerebellar medulloblastoma cell); assay: Cell viability assay (Promega CellTiter-Glo), inhibitory effect on D341 Med; settings: Homo sapiens, 72 h, 3 days of culture, read-out: inhibitory effect on brain cell line D341 Med (IC50)
Protocol: as §4, §5, §3
Cell line D341 Med (ATCC, No. HTB-187) was cultured in 20% fetal bovine serum-containing EMEM medium (+P/S).

[8] = tested on: G-401 (human renal carcinoma Wilms cell); assay: Cell viability assay (Promega CellTiter-Glo), inhibitory effect on G-401; settings: 72 h, 3 days of culture
Protocol: as §1, §2, §3
Cell line G-401 (ATCC, No. CRL-1441) was cultured in 10% fetal bovine serum-containing McCoy's 5a medium (+P/S).

[9] = tested on: sh-DNMT1 NCI-H82 cell (DNMT1 knocked down NCI-H82); assay: Cell viability assay (Promega CellTiter-Glo), inhibitory effect on sh-DNMT1 NCI-H82 cell; settings: Homo sapiens, NCI-H82 with DNMT1 knocked down by shRNA
Protocol: as §6, §7

[10] = tested on: ov-NNMT NCI-H82 cell (NNMT protein-overexpressing NCI-H82); assay: Cell viability assay (Promega CellTiter-Glo), inhibitory effect on ov-NNMT NCI-H82 cell; settings: Homo sapiens
Protocol: as §6, §7

[11] = tested on: MDA-MB-453 (breast cancer cell); assay: Cell viability assay (Promega CellTiter-Glo), inhibitory effect on MDA-MB-453; settings: Homo sapiens, 72 h, 3 days of culture
Protocol: as §1, §2, §3
Cell line MDA-MB-453 (ATCC, No. HTB-131) was cultured in 10% fetal bovine serum-containing Leibovitz's L-15 medium (+P/S).

[12] = tested on: SF126 (human glioblastoma multiforme cell); assay: Cell viability assay (Promega CellTiter-Glo), inhibitory effect on SF126
Protocol: as §1, §2, §3
Cell line SF126 (JCRB, No. IFO50286) was cultured in 10% fetal bovine serum-containing EMEM medium (+P/S).
as §4, §5

[13] = tested on: NCI-H82 (human small cell lung cancer cell); assay: Cell viability assay (Promega CellTiter-Glo), inhibitory effect on NCI-H82; settings: 72 h, 3 days of culture
Protocol: as §1, §2, §3
Cell line NCI-H82 (ATCC, No. HTB-175) was cultured in 10% fetal bovine serum-containing RPMI1640 medium (+P/S).

[14] = tested on: NB-1 (brain neuroblastoma cell); assay: Cell viability assay (Promega CellTiter-Glo), inhibitory effect on NB-1; settings: Homo sapiens, 72 h, 3 days of culture, read-out: inhibitory effect on brain cell line NB-1 (IC50)
Protocol: as §4, §5, §3
Cell line NB-1 (ATCC, No. HTB-131) was cultured in 10% fetal bovine serum-containing Leibovitz's L-15 medium (+P/S).

[15] = Table 3, read-out: inhibitory effect on GB-1 (IC50)
[16] = Table 4, read-out: inhibitory effect on brain cell line GB-1 (IC50)
[17] = 72 h, SF-126, 3 days of culture, Table 3, read-out: inhibitory effect on SF-126 (IC50)
[18] = SF-126, 72 h, SF126, 3 days of culture, Table 4, read-out: inhibitory effect on brain cell line SF126 (IC50)

Compound	IC50 [1] [nM]	IC50 [2] [nM]	IC50 [3] [nM]	IC50 [4, 15] [nM]	IC50 [4, 16] [nM]	IC50 [5] [nM]	IC50 [6] [nM]	IC50 [7] [nM]	IC50 [8] [nM]	IC50 [9] [nM]	IC50 [10] [nM]	IC50 [11] [nM]	IC50 [12, 17] [nM]	IC50 [12, 18] [nM]	IC50 [13] [nM]	IC50 [14] [nM]
CCc1c2c(OC)c(OC)ccc2cc2[n+]1CCc1cc3c(cc1-2)OCO3 [compound AB31706]	1240	16600	1510	12900	12900	1480	21900	1180	1120	4640	3150	620	6490	6490	1480	300
CCCCc1c2c(OC)c(OC)ccc2cc2[n+]1CCc1cc3c(cc1-2)OCO3 [compound AB31707]	1420	7630	1240	8270	8270	1170	13000	1370	1120	3410	2960	620	10200	10200	1170	290
CCCCc1c2c(OC)c(OC)cc(Br)c2cc2[n+]1CCc1cc3c(cc1-2)OCO3 [compound AB31711]	820	3970	880	5320	5320	650	9470	920	720	1900	1430	500	5210	5210	650	240
COc1ccc2cc3[n+](cc2c1OCCCCOc1ccccc1)CCc1cc2c(cc1-3)OCO2 [compound AB31718]	250	2690	660	3410	3410	290	5290	180	370	1360	680	90	4250	4250	290	20
COc1ccc2cc3[n+](cc2c1OCCCBr)CCc1cc2c(cc1-3)OCO2 [compound AB31721]	800	9160	1260	10000	10000	400	7170	360	1380	1310	920	430	10800	10800	400	140
CCC(CC)C(=O)Oc1c(OC)ccc2cc3[n+](cc12)CCc1cc2c(cc1-3)OCO2 [compound AB31722]	2060	26200	2520	40400	40400	2810	24400	2890	3940	8930	5980	1410	20600	20600	2810	980
COc1ccc2cc3[n+](cc2c1OCCCCCCCl)CCc1cc2c(cc1-3)OCO2 [compound AB31731]	620	3760	860	6640	6640	520	8980	340	770	1660	1320	220	6190	6190	520	70
